Test results taken from patent US12571801B2, “Tandem activity-based sensing and labeling strategy for reactive oxygen species imaging” (The Regents of the University of California, priority 2021, dated 2026).

Key:
[1] = Fluorescence response of probes to H2O2 in buffer; conditions: 1 μM probe, 25 μM H2O2, PBS (pH 7.4), 37° C.
Method: (§1) FIGS. 1A-I. Fluorescence responses and activity-based sensing and labeling properties of PG1-FM, MitoPY1-FM, and PR1-FM. (A, B, C) Activity-based sensing fluorescence responses of 1 μM PG1-FM (A), 1 μM MitoPY1-FM (B), and 1 μM PR1-FM (C) to 25 μM H2O2. Data were acquired in PBS (pH 7.4) at 37° C. (D, E, F) Fluorescence responses of 1 μM PG1-FM (D), 1 μM MitoPY1-FM (E), and 1 μM PR1-FM (F) towards biologically relevant competing reactive oxygen species and reactive nitrogen species. (G, H, I) H2O2-dependent activity-based labeling of PG1-FM (G), MitoPY1-FM (H), and PR1-FM (I) to BSA. A solution of BSA (0.5 mg/mL) and PG1-FM (1 μM), MitoPY1-FM (1 μM), and PR1-FM (1 μM) in PBS (pH 7.4) was incubated with or without H2O2(100 μM) and analyzed by SDS-PAGE gel.
(§2) We first evaluated the in vitro response of PG1-FM, MitoPY1-FM, and PR1-FM to hydrogen peroxide in aqueous solution buffered to physiological pH. […] PG1-FM converted to a fluorescent product that undergoes subsequent hydrolysis with H2O by LC analysis (FIG. 9A-B). […] To establish activity-based labeling of PG1-FM, MitoPY1-FM, and PR1-FM in a H2O2-dependent manner, we incubated the probes with bovine serum albumin (BSA) as a model protein substrate in the presence or absence of H2O2, and the reactions were analyzed by SDS-PAGE.
(§3) PG1-FM was dissolved in DMSO to obtain a 1 mM stock solution. The fluorescence spectra of PG1-FM (1 μM) were measured in PBS (−) containing 25 μM of H2O2, OCl^−, TBHP, O2^−, ONOO^−, or NO OCl^−, O2^−, ONOO^−, or NO were generated by using NaOCl (Fluka), potassium superoxide (SIGMA), Peroxynitrite (Cayman), and PROLI NONOate (Cayman), respectively. The fluorescence spectra of PG1-FM were collected an emission window between 500 nm to 650 nm with excitation at 488 nm.

[2] = system: HeLa cells; test: Imaging of mitochondrial H2O2 in HeLa cells treated with Antimycin or Rotenone; type: cell-based
Method: FIGS. 7A-B. Confocal microscopic images of HeLa cell stained with MitoPY1-FM. (A) HeLa cell was stained with MitoPY1-FM (5 μM) for 1 h. After washing the cell with non-FBS medium, the cell was treated with Antimycin (1 μM) or Rotenone (1 μM) for 24 h. The cells were observed on confocal microscope after washing the cell. (B) Confocal microscopic images of fixed HeLa cell stained with MitoPY1-FM and Tom 20 antibody. HeLa cells were stained with MitoPY1-FM and then exposed with antimycin A. The treated cells were fixed and stained with Tom 20 antibody before the observation.
We evaluated MitoPY1-FM for imaging mitochondrial H2O2 fluxes produced by inhibition of mitochondrial electron transporter chain. HeLa cells were pre-stained with MitoPY1-FM (5 μM) and stimulated by Antimycin (1 μM) or Rotenone (1 μM) for 24 h to induce ROS and oxidative stress.

[3] = ROS selectivity analysis (fluorescence response to competing ROS/RNS); conditions: 1 μM probe; OCl−, TBHP, O2−, ONOO−, NO; PBS
Method: as §1
FIG. 8. Fluorescence spectra of PG1-FM reacted with […] of OCl^−, TBHP, O2^−, ONOO^−, NO or PBS (control). PG1-FM (1 μM) was incubated with […] of H2O2, OCl^−, TBHP, O2^−, ONOO^−, or NO at 37° C. in PBS (−). The mixtures were measured by fluorometer at any incubating times (0, 5, 15, 30, 45, and 60 min).
as §3

[4] = target: bovine serum albumin (BSA) (Bos taurus, UniProt P02769); test: H2O2-dependent activity-based labeling of BSA, SDS-PAGE; type: biochemical; conditions: BSA 0.5 mg/mL, with or without H2O2 (100 μM)
Method: as §1, §2
PG1-FM (10 μM) and BSA (0.5 mg/mL) were incubated at 25° C. for 1 h with or without H2O2 (100 μM). Afterward, Ebselen (100 μM) was added to the mixture to quench excess of H2O2. The obtained samples were separated with Novex™ Mini Gel (Thermo). The gel was first analyzed by ChemiDoc™ MP (Bio-Rad) to take a fluorescence images, and stained with Coomassie brilliant blue (CBB) Solution

[5] = system: HeLa cells; test: Confocal imaging of exogenous H2O2 in live HeLa cells; type: cell-based; conditions: 5 μM probe; for probe fluorescence in HeLa cells on exogenous H2O2 treatment: H2O2 (1 mM) 60 min vs vehicle, confocal
Method: FIGS. 2A-C. Exogenous H2O2 detection. Confocal microscopic images of HeLa cell stained with PG1-FM, PR1-FM, and MitoPY1-FM. (A, B) HeLa cells were pe-stained with PG1-FM (5 μM) or PR1-FM (5 μM) at 37° C. in a 5% CO2 incubator. After incubating for 30 min, the cells were washed with HBSS twice, and treated with H2O2 (1 mM) for 60 min. The cells were observed on confocal microscope after washing with HBSS twice. (C) HeLa cells were pe-stained with MitoPY1-FM (5 μM) at 37° C. in a 5% CO2 incubator. After incubating for 30 min, the cells were washed with HBSS twice, and treated with H2O2 (1 mM) for 60 min. The cells were observed on confocal microscope after staining with MitoBright LT Green for 30 mi. Scale bar: 50 μm.
We next assessed the ability of PG1-FM, MitoPY1-FM, and PR1-FM for visualizing changes in H2O2 levels in live cells with exogenous H2O2 treatment. HeLa cells were pre-stained with 5 μM of PG1-FM, MitoPY1-FM, or PR1-FM, treated with H2O2 (1 mM) or vehicle control, washed, and imaged. MitoPY1-FM stained HeLa cells were co-stained with MitoBright LT Green before imaging. […] We observed that the probes load evenly throughout the cell and responds to elevations in H2O2(FIGS. 2A, 2B, and 2C).
Cells were grown at the UC Berkeley Tissue Culture Facility. HeLa, RAW264.7, and A431 cells were cultured in DMEM (high glucose) supplemented with 10% (v/v) fetal bovine serum, GlutaMAX, and NEAA. All cells were maintained in a humidified 5% CO2 incubator at 37° C.

[6] = system: A431 cells; test: Imaging of endogenous H2O2 in EGF-stimulated A431 cells; type: cell-based
Method: (A) Confocal microscopy (top row) and overlaid brightfield (bottom row) images of A431 cells stained with PG1-FM (10 μM) and then treated with EGF (1 μg/mL) or vehicle control for 30 min, washed and imaged, or first pre-treated with NADPH oxidase inhibitor DPI (5 μM) or antioxidant ebselen (5 μM) for 30 min in HBSS solution before PG1-FM staining and EGF stimulation. (B) Quantification of experiments.

[7] = system: RAW 264.7 macrophages; test: Imaging and flow cytometry of endogenous H2O2 in PMA-stimulated RAW264.7 macrophages; type: cell-based, mouse; conditions: for probe fluorescence in PMA-treated RAW 264.7 cells vs control: probe 10 μM, PMA 1 μg/mL 60 min, confocal microscopy and flow cytometry
Method: (A) Confocal microscopy (top row) and overlaid brightfield (bottom row) images of RAW264.7 macrophages stained with PG1-FM (10 μM) and then treated with PMA (1 μg/mL) or vehicle control for 60 min, washed and imaged, or first pre-treated with NADPH oxidase inhibitor DPI (5 μM) or antioxidant ebselen (5 μM) for 30 min in HBSS solution before PG1-FM staining and PMA stimulation. (B) Flow cytometry histograms and (C) quantification of mean value fluorescence intensity using PG1-FM under same conditions as (A). (D) Confocal microscopic images of RAW264.7 macrophages stained with PR1-FM (10 μM) under same conditions as (A). **P<0.01.
We next tested the ability of PG1-FM and PR1-FM to monitor H2O2 production in RAW 264.7 macrophages.
RAW264.7 cells were plated on a μ-slide 8 well (ibidi) and cultured at 37° C. overnight in a 5% CO2 incubator. The cells were pretreated with inhibitors, DPI (5 μM) or Ebselen (10 μM), for 30 min in HBSS. Afterward, the cells were co-incubated with PG1-FM (10 μM) and PMA (1 μg/mL) with or without DPI or Ebselen. The cells were observed on confocal microscope after washing with HBSS twice.
RAW264.7 cells were plated on a 6 well plate and cultured at 37° C. overnight in a 5% CO2 incubator. The cells were pretreated with inhibitors, DPI (5 μM) or Ebselen (10 μM), for 30 min in HBSS. Afterward, the cells were co-incubated with PG1-FM (5 μM) and PMA (1 μg/mL) with or without DPI or Ebselen. The cells were harvested by 0.05% Trypsin with EDTA, filtered, and analyzed with flow cytometer.

[8] = system: zebrafish; test: In vivo live imaging of endogenous H2O2 in zebrafish, tail fin cut model
Method: FIG. 6. Confocal microscopic images of zebrafish labeled with PR1-FM. Zebrafish embryos in E3 medium containing P1-FM (5 μM) were incubated overnight. The fishes were additionally incubated for 1 hour with containing DPI (100 nM) before the tail fin cut.
We sought to apply PR1-FM for in vivo live imaging to detect endogenous hydrogen peroxide production. PR1-FM was tested with live zebrafish in the regenerated fin model. The larvae at two days post-fertilization (dpf) was pre-stained with PR1-FM (5 μM) overnight before tail fin cut. […] Taken together, PR1-FM can be useful for detecting hydrogen peroxide in live zebrafish.

[9] = system: HeLa cells; test: Imaging and flow cytometry of endogenous H2O2 in paraquat-treated HeLa cells; type: cell-based; conditions: paraquat 1 mg/mL 24 h; confocal microscopy, verified by flow cytometry
Method: FIGS. 3A-C. PG1-FM imaging of endogenous H2O2 generation in live HeLa cells under oxidative stress conditions stimulated by paraquat. (A) Confocal microscopy images of HeLa cells treated with or without paraquat (1 mg/mL) for 24 h, stained with PG1-FM (10 μM) for 1 h, washed twice with HBSS, and imaged. Scale bar: 50 μm. (B) Flow cytometry analysis of the cells treated with or without paraquat using PG1-FM using same conditions as (A). (C) Flow cytometric data quantified with mean value. **P<0.01.
We next utilized PG1-FM for imaging endogenous H2O2 fluxes produced by multiple types of cell models under various stimulation conditions. Our first set of experiments along these lines evaluated the performance of the probe under conditions of oxidative stress induced by paraquat treatment. HeLa cells were stimulated with or without paraquat (1 mg/mL) for 24 h to induce ROS and oxidative stress, followed by staining with PG1-FM for 30 min, washing, and imaging. […] Because the probe is cell-trappable, we verified the observed fluorescence enhancements using flow cytometry (FIG. 3B, 3C), highlighting its utility in this analytical method as well.

bovine serum albumin (BSA), sequence (P02769 25-607): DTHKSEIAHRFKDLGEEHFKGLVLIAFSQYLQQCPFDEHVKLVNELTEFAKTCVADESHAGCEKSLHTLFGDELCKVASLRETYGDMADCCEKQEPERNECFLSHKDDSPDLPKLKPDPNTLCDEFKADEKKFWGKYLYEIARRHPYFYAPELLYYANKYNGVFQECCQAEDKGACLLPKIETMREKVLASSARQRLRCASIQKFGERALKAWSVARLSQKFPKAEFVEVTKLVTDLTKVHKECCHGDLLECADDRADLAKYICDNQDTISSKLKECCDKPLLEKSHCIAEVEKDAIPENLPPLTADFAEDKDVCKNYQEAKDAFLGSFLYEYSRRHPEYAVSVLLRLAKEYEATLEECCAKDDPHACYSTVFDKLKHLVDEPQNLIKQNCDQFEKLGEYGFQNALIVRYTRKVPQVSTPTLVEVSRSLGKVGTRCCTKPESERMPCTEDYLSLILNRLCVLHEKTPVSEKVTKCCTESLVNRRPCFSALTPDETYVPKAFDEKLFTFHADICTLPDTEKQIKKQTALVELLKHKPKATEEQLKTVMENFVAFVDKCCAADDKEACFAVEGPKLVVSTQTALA

## CC1(C)OB(c2ccc3c(c2CF)Oc2cc(N4CCN(C(=O)CCC[P+](c5ccccc5)(c5ccccc5)c5ccccc5)CC4)ccc2C32OC(=O)c3ccccc32)OC1(C)C.[Br-] (stereo not shown) [MitoPY1-FM, MitoPY1 Fluoromethyl]
[1]
  fluorescence response after treatment with H2O2: clear fluorescence enhancement
[2]; MitoPY1-FM 5 μM, Antimycin (1 μM) or Rotenone (1 μM) 24 h
  probe fluorescence in mitochondria of HeLa cells exposed to electron transport chain inhibitors vs untreated: patent H2O2-dependent fluorescence increases
[2]; antimycin A exposed, fixed cells
  localisation of probe fluorescence in fixed HeLa cells co-stained with Tom20 antibody: enhanced on mitochondria
[3]
  selectivity of fluorescence response for H2O2 over other ROS and RNS: highly selective response for H2O2
[4]
  H2O2-dependent fluorescent labeling of BSA: fluorescent BSA-associated band was observed only under conditions with H2O2
[5]; HeLa cells, H2O2 (1 mM)
  localisation by co-staining with MitoBright LT Green: overlapped with MitoBright LT

## c1ccc2c(c1)[I+]c1ccccc1-2 [DPI, diphenyleneiodonium, reference compound]
[6]; inhibitor 5 μM pre-treatment 30 min
  effect of inhibitor on H2O2-induced PG1-FM fluorescence in EGF-stimulated A431 cells: inhibited H2O2-induced enhancements in PG1-FM fluorescence
[7]; inhibitor pre-treatment 30 min in HBSS
  effect of inhibitor on PMA-induced probe fluorescence increase in RAW 264.7 cells: fluorescence increases are blocked
[8]; DPI 100 nM, 1 hour before the tail fin cut
  effect of inhibitor on PR1-FM fluorescence in zebrafish after tail fin cut: lower level of fluorescence

## CN(C)c1ccc2c(c1)[Si](C)(C)c1c(ccc(B3OC(C)(C)C(C)(C)O3)c1CF)C21OC(=O)c2ccccc21 (stereo not shown) [PR1-FM, Peroxy Red-1 Fluoromethyl]
[1]
  fluorescence response after treatment with H2O2: clear fluorescence enhancement
[7]
  probe fluorescence in PMA-treated RAW 264.7 cells vs control: higher PG1-FM and PR1-FM fluorescence relative to control cells
[3]
  selectivity of fluorescence response for H2O2 over other ROS and RNS: highly selective response for H2O2
[8]; larvae 2 dpf, PR1-FM 5 μM overnight
  probe fluorescence in zebrafish post-cut vs pre-cut of tail fin: patently higher fluorescence signals in post-cut condition
[4]
  H2O2-dependent fluorescent labeling of BSA: fluorescent BSA-associated band was observed only under conditions with H2O2
[5]
  probe fluorescence in HeLa cells on exogenous H2O2 treatment: fluorescence increase in the whole cells

## COc1ccc2c(c1)Oc1c(ccc(B3OC(C)(C)C(C)(C)O3)c1CF)C21OC(=O)c2ccccc21 (stereo not shown) [PG1-FM, Peroxy Green-1 Fluoromethyl]
[6]; PG1-FM 10 μM, EGF 1 μg/mL 30 min, confocal
  probe fluorescence in EGF-stimulated A431 cells vs control: clear increase in fluorescence
[1]
  fluorescence response after treatment with H2O2: clear fluorescence enhancement
[7]
  probe fluorescence in PMA-treated RAW 264.7 cells vs control: higher PG1-FM and PR1-FM fluorescence relative to control cells
[3]
  selectivity of fluorescence response for H2O2 over other ROS and RNS: highly selective response for H2O2
[9]
  probe fluorescence in paraquat-exposed vs untreated HeLa cells: patent H2O2-dependent fluorescence increases
[4]
  H2O2-dependent fluorescent labeling of BSA: fluorescent BSA-associated band was observed only under conditions with H2O2
[5]
  probe fluorescence in HeLa cells on exogenous H2O2 treatment: fluorescence increase in the whole cells
